Patent publication US10358436B2, “Kinase inhibitors and method of treating cancer” (University Health Network, priority 2010, dated 2019)

How the values were obtained:
Ron = Ron (Homo sapiens (Human), UniProt Q04912); format: biochemical; conditions: read-out: % Inhibition @ 0.1 μM, Ron
Abl (M351T) = Abl (M351T) (Homo sapiens (Human), UniProt P00519, M351T); format: biochemical; conditions: read-out: % Inhibition @ 0.1 μM, Abl (M351T)
FGFR2 = FGFR2 (Homo sapiens (Human), UniProt P21802); format: biochemical; conditions: read-out: % Inhibition @ 0.1 μM, FGFR2
IRAK1 = IRAK1 (Homo sapiens (Human), UniProt P51617); format: biochemical; conditions: read-out: % Inhibition @ 0.1 μM, IRAK1
EphB1 = EphB1 (Homo sapiens (Human), UniProt P54762); format: biochemical; conditions: read-out: % Inhibition @ 0.1 μM, EphB1
GCK = GCK (Homo sapiens (Human), UniProt Q12851); format: biochemical; conditions: read-out: % Inhibition @ 0.1 μM, GCK
Arg (m) = Arg (m) (Mus musculus (Mouse), UniProt Q4JIM5); format: biochemical; conditions: read-out: % Inhibition @ 0.1 μM, Arg (m)
ALK = ALK (Homo sapiens (Human), UniProt Q9UM73); format: biochemical; conditions: read-out: % Inhibition @ 0.1 μM, ALK
FGFR2 (N549H) = FGFR2 (N549H) (Homo sapiens (Human), UniProt P21802, N549H); format: biochemical; conditions: read-out: % Inhibition @ 0.1 μM, FGFR2 (N549H)
FGFR1 = FGFR1 (Homo sapiens (Human), UniProt P11362); format: biochemical; conditions: read-out: % Inhibition @ 0.1 μM, FGFR1
FGFR1, sequence (P11362 22-822): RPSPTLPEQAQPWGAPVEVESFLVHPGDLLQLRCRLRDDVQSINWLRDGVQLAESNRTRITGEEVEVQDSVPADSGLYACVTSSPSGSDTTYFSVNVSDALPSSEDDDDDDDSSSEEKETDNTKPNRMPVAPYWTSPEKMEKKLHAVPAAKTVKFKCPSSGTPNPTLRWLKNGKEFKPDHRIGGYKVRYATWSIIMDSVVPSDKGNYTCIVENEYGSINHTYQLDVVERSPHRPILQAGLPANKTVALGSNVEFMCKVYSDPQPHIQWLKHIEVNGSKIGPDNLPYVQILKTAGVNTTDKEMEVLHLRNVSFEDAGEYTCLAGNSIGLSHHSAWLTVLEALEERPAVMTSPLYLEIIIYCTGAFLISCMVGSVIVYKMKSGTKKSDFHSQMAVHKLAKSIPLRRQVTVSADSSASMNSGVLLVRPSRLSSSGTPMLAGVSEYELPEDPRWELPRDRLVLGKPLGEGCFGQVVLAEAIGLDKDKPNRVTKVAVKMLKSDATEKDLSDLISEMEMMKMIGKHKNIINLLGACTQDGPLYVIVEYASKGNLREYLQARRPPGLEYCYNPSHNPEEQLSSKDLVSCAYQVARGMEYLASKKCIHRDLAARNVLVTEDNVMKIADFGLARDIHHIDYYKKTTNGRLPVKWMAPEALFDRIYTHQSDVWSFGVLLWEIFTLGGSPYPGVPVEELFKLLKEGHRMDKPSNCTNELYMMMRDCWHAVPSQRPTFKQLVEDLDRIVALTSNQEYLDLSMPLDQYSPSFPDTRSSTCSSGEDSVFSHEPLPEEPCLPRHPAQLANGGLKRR

Abl (m) = Abl (m) (Mus musculus (Mouse), UniProt P00520); format: biochemical; conditions: read-out: % Inhibition @ 0.1 μM, Abl (m)
Arg = Arg (Homo sapiens (Human), UniProt P42684); format: biochemical; conditions: read-out: % Inhibition @ 0.1 μM, Arg
ARK5 = ARK5 (Homo sapiens (Human), UniProt O60285); format: biochemical; conditions: read-out: % Inhibition @ 0.1 μM, ARK5
Abl (Q252H) = Abl (Q252H) (Homo sapiens (Human), UniProt P00519, Q252H); format: biochemical; conditions: read-out: % Inhibition @ 0.1 μM, Abl (Q252H)
Tie2 (R849W) = Tie2 (R849W) (Homo sapiens (Human), UniProt Q02763, R849W); format: biochemical; conditions: read-out: % Inhibition @ 0.1 μM, Tie2 (R849W)
Tie2 (R849W), sequence (Q02763 23-1124 R849W): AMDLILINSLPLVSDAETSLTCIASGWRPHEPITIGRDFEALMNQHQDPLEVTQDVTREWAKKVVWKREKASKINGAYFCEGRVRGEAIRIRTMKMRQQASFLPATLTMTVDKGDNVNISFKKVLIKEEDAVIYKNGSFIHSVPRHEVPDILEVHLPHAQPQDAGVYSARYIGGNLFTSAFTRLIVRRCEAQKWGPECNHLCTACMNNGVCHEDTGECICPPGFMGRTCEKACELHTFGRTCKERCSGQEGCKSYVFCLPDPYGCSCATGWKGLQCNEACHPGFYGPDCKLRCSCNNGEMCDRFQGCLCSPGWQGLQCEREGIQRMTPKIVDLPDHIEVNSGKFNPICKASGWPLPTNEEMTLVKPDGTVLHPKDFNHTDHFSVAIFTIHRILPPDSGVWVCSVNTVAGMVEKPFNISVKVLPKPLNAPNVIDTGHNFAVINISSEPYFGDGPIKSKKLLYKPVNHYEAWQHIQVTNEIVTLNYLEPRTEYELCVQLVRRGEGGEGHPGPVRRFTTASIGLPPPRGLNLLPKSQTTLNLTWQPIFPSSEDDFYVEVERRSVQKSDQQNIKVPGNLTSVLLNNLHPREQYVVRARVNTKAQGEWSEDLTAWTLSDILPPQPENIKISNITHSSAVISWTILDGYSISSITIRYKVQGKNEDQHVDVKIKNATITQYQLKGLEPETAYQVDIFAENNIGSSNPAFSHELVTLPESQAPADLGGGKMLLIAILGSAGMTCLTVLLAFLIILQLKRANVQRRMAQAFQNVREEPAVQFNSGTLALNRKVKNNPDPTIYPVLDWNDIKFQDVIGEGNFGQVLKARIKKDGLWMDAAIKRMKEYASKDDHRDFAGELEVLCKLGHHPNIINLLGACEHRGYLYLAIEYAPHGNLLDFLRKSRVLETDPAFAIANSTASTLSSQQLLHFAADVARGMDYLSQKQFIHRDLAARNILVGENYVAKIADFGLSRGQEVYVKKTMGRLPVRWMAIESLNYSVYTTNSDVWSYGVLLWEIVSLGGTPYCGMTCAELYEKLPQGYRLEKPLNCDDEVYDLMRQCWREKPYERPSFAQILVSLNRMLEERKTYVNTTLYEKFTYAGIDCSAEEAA

Lck = Lck (Homo sapiens (Human), UniProt P06239); format: biochemical; conditions: read-out: % Inhibition @ 0.1 μM, Lck
Tie2 = Tie2 (Homo sapiens (Human), UniProt Q02763); format: biochemical; conditions: read-out: % Inhibition @ 0.1 μM, Tie2
Tie2, sequence (Q02763 23-1124): as the sequence (Q02763 23-1124 R849W) above, with W827R counted along it

TrkB = TrkB (Homo sapiens (Human), UniProt Q16620); assay: biochemical; conditions: read-out: % Inhibition @ 0.1 μM, TrkB
Ret (V804L) = Ret (V804L) (Homo sapiens (Human), UniProt P07949, V804L); format: biochemical; conditions: read-out: % Inhibition @ 0.1 μM, Ret (V804L)
Ret (V804L), sequence (P07949 29-1114 V804L): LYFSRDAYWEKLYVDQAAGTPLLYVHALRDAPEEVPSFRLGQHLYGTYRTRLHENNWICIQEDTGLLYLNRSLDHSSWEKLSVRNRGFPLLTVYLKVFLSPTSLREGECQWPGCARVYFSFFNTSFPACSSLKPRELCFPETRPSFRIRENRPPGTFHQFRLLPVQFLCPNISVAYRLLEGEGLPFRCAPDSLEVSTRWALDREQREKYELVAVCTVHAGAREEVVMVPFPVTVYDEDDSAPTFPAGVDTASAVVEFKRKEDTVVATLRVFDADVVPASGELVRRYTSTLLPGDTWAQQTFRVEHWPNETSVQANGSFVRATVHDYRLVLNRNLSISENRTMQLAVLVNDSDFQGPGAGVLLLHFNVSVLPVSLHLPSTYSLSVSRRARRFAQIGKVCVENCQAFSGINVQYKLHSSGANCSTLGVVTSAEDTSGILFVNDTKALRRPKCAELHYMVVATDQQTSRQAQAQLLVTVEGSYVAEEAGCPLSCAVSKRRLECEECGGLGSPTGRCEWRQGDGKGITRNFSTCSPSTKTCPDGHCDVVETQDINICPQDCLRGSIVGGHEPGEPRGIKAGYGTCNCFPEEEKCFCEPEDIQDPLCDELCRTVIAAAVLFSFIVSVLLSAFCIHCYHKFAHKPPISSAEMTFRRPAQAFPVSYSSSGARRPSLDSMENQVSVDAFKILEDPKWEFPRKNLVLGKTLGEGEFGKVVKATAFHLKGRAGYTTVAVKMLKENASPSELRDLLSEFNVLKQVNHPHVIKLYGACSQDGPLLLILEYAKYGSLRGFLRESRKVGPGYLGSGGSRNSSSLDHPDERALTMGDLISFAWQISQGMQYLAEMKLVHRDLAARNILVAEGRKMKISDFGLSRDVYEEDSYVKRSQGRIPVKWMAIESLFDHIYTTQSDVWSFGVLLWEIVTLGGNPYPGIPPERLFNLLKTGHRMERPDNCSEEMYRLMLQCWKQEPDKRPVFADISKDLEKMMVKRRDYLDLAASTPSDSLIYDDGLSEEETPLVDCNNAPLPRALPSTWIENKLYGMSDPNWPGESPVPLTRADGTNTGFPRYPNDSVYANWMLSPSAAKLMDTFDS

Aurora A = Aurora A (Homo sapiens (Human), UniProt O14965); format: biochemical; conditions: read-out: % Inhibition @ 0.1 μM, Aurora-A
Aurora A, sequence (O14965 whole entry): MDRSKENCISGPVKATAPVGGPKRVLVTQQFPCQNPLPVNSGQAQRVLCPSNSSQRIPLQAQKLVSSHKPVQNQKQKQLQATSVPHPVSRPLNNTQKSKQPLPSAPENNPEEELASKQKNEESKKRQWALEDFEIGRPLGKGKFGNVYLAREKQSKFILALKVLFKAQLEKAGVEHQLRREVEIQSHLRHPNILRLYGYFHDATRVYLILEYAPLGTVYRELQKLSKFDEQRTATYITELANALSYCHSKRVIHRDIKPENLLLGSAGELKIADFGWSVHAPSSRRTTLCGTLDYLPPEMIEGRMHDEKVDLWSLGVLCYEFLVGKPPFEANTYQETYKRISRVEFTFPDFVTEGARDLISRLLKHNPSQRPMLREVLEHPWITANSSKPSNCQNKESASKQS

Lck activated = Lck activated (Homo sapiens (Human), UniProt P06239); format: biochemical; conditions: read-out: % Inhibition @ 0.1 μM, Lck activated
Abl (H396P) = Abl (H396P) (Homo sapiens (Human), UniProt P00519, H396P); format: biochemical; conditions: read-out: % Inhibition @ 0.1 μM, Abl (H396P)
Aurora B = Aurora B (Homo sapiens (Human), UniProt Q96GD4); conditions: read-out: % Inhibition @ 0.1 μM, Aurora-B
Aurora B, sequence (Q96GD4 whole entry): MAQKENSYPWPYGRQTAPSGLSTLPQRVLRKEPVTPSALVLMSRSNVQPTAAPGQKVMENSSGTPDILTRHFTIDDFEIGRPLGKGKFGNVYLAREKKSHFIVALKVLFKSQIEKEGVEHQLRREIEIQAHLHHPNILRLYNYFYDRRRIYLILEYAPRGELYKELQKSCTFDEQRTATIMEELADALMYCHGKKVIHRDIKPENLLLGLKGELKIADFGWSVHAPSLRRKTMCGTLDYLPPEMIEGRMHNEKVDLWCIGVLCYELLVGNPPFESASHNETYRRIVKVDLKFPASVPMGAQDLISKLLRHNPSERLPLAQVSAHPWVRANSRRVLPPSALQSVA

FGFR3 = FGFR3 (Homo sapiens (Human), UniProt P22607); format: biochemical; conditions: read-out: % Inhibition @ 0.1 μM, FGFR3
Tie2 (Y897S) = Tie2 (Y897S) (Homo sapiens (Human), UniProt Q02763, Y897S); format: biochemical; conditions: read-out: % Inhibition @ 0.1 μM, Tie2 (Y897S)
Tie2 (Y897S), sequence (Q02763 23-1124 Y897S): as the sequence (Q02763 23-1124 R849W) above, with W827R, Y875S counted along it

TRKA = TRKA (Homo sapiens (Human), UniProt P04629); format: biochemical; conditions: read-out: % Inhibition @ 0.1 μM, TrkA
Abl (Y253F) = Abl (Y253F) (Homo sapiens (Human), UniProt P00519, Y253F); format: biochemical; conditions: read-out: % Inhibition @ 0.1 μM, Abl (Y253F)
Itk = Itk (Homo sapiens (Human), UniProt Q08881); format: biochemical; conditions: read-out: % Inhibition @ 0.1 μM, Itk
Abl = Abl (Homo sapiens (Human), UniProt P00519); format: biochemical; conditions: read-out: % Inhibition @ 0.1 μM, Abl
Ros = Ros (Homo sapiens (Human), UniProt P08922); format: biochemical; conditions: read-out: % Inhibition @ 0.1 μM, Ros
MuSK = MuSK (Homo sapiens (Human), UniProt O15146); format: biochemical; conditions: read-out: % Inhibition @ 0.1 μM, MuSK
MuSK, sequence (O15146 24-869): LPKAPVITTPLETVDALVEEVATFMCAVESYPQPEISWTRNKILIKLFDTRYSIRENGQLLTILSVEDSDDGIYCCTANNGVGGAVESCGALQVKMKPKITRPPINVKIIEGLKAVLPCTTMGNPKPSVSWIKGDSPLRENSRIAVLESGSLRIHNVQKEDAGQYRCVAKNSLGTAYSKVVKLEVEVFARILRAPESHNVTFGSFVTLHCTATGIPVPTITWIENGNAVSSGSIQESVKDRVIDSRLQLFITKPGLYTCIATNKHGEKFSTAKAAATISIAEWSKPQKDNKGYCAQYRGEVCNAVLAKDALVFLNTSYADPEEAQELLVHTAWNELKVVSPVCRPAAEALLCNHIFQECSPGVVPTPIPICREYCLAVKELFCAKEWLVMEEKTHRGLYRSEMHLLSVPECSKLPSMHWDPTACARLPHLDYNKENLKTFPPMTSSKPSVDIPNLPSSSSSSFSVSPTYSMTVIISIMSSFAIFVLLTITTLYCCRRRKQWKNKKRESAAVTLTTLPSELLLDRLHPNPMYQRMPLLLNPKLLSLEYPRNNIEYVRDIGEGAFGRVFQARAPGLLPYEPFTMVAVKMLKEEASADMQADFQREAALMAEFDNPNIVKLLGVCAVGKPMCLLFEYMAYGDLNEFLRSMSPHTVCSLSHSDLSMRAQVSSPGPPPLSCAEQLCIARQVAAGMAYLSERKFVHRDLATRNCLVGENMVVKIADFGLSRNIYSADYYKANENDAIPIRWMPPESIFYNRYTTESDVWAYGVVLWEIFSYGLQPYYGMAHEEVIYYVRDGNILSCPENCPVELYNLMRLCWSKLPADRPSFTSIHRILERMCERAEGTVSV

Bmx = Bmx (Homo sapiens (Human), UniProt P51813); format: biochemical; conditions: read-out: % Inhibition @ 0.1 μM, Bmx
FLT3 = FLT3 (Homo sapiens (Human), UniProt P36888); conditions: read-out: % Inhibition @ 0.1 μM, Flt3
FGFR1 (V561M) = FGFR1 (V561M) (Homo sapiens (Human), UniProt P11362, V561M); format: biochemical; conditions: read-out: % Inhibition @ 0.1 μM, FGFR1 (V561M)
FGFR1 (V561M), sequence (P11362 22-822 V561M): as the sequence (P11362 22-822) above, with V540M counted along it

Abl (T315I) = Abl (T315I) (Homo sapiens (Human), UniProt P00519, T315I); format: biochemical; conditions: read-out: % Inhibition @ 0.1 μM, Abl (T315I)
EphA1 = EphA1 (Homo sapiens (Human), UniProt P21709); format: biochemical; conditions: read-out: % Inhibition @ 0.1 μM, EphA1

SMILES: COc1ccc2c(c1)[C@]1(C[C@H]1c1ccc3c(/C=C/c4ccc(N5CCN(C)CC5)nc4)n[nH]c3c1)C(=O)N2 [Example A33, (1R,2S)-5′-methoxy-2-(3-((E)-2-(6-(4-methylpiperazin-1-yl)pyridin-3-yl)vinyl)-1H-indazol-6-yl)spiro[cyclopropane-1,3′-indolin]-2′-one 2,2,2-trifluoroacetate]
- inhibition at 0.1 µM (Ron): 42%
- inhibition at 0.1 µM (Abl (M351T)): 95%
- inhibition at 0.1 µM (FGFR2): 82%
- inhibition at 0.1 µM (IRAK1): 24%
- inhibition at 0.1 µM (EphB1): 34%
- inhibition at 0.1 µM (GCK): 51%
- inhibition at 0.1 µM (Arg (m)): 96%
- inhibition at 0.1 µM (ALK): 32%
- inhibition at 0.1 µM (FGFR2 (N549H)): 75%
- inhibition at 0.1 µM (FGFR1): 87%
- inhibition at 0.1 µM (Abl (m)): 96%
- inhibition at 0.1 µM (Arg): 94%
- inhibition at 0.1 µM (ARK5): 67%
- inhibition at 0.1 µM (Abl (Q252H)): 83%
- inhibition at 0.1 µM (Tie2 (R849W)): 40%
- inhibition at 0.1 µM (Lck): 48%
- inhibition at 0.1 µM (Tie2): 83%
- inhibition at 0.1 µM (TrkB): 98%
- inhibition at 0.1 µM (Ret (V804L)): 43%
- inhibition at 0.1 µM (Aurora A): 96%
- inhibition at 0.1 µM (Lck activated): 41%
- inhibition at 0.1 µM (Abl (H396P)): 93%
- inhibition at 0.1 µM (Aurora B): 100%
- inhibition at 0.1 µM (FGFR3): 91%
- inhibition at 0.1 µM (Tie2 (Y897S)): 49%
- inhibition at 0.1 µM (TRKA): 97%
- inhibition at 0.1 µM (Abl (Y253F)): 78%
- inhibition at 0.1 µM (Itk): 34%
- inhibition at 0.1 µM (Abl): 72%
- inhibition at 0.1 µM (Ros): 23%
- inhibition at 0.1 µM (MuSK): 18%
- inhibition at 0.1 µM (Bmx): 68%
- inhibition at 0.1 µM (FLT3): 28%
- inhibition at 0.1 µM (FGFR1 (V561M)): 91%
- inhibition at 0.1 µM (Abl (T315I)): 94%
- inhibition at 0.1 µM (EphA1): 22%
